Results: patent US9730939B2, “Heterocyclylamines as PI3K inhibitors” (Incyte Corporation, priority 2011, dated 2017)

Target: PI3Kδ (p110δ/p85α) (Homo sapiens (Human), UniProt O00329)
Test: Example A3 PI3Kδ scintillation proximity assay
Format: biochemical
Settings: comparison of compounds 355-358; assay not given
Method: PI3Kδ Scintillation Proximity Assay
[γ-^33P]ATP (10 mCi/mL) was purchased from PerkinElmer (Waltham, Mass.). […] PI3Kδ (p110δ/p85α) was purchased from Millipore (Bedford, Mass.). ATP, MgCl2, DTT, EDTA, MOPS and CHAPS were purchased from SigmaAldrich (St. Louis, Mo.). Wheat Germ Agglutinin (WGA) YSi SPA Scintillation Beads was purchased from GE healthcare life sciences (Piscataway, N.J.).
The final concentration of DMSO in the assay was 0.5%. The PI3K assays were carried out at room temperature in 20 mM MOPS, pH 6.7, 10 mM MgCl2, 5 mM DTT and CHAPS 0.03%. Reactions were initiated by the addition of ATP, the final reaction mixture consisted of 20 μM PIP2, 20 μM ATP, 0.2 μCi [γ-^33P]

Sequence of PI3Kδ (p110δ/p85α) (O00329 whole entry): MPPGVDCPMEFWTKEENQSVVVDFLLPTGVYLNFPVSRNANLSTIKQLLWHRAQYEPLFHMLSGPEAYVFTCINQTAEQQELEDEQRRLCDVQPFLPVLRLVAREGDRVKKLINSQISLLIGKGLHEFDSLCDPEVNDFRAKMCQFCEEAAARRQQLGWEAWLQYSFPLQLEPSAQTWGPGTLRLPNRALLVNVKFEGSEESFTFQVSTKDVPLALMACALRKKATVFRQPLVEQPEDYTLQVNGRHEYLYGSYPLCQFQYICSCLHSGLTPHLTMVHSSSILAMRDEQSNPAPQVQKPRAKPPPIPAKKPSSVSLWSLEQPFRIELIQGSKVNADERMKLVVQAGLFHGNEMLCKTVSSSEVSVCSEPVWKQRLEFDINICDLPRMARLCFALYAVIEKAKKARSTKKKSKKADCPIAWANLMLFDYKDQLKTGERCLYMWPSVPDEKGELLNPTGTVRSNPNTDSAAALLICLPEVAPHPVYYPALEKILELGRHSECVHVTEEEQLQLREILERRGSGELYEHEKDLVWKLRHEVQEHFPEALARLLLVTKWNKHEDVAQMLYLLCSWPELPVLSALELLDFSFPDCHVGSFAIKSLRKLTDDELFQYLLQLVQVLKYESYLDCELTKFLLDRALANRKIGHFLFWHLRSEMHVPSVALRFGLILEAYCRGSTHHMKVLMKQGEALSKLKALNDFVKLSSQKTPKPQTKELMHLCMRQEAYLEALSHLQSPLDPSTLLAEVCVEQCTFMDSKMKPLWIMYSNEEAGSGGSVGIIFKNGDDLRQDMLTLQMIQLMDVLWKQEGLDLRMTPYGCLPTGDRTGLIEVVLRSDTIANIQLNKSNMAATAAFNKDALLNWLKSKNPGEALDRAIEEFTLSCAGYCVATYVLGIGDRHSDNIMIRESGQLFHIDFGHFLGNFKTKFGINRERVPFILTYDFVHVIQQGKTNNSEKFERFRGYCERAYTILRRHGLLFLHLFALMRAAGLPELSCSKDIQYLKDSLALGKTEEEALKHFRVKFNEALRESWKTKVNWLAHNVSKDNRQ
Sequence of PI3Kδ (p110δ/p85α) (P27986 whole entry partner): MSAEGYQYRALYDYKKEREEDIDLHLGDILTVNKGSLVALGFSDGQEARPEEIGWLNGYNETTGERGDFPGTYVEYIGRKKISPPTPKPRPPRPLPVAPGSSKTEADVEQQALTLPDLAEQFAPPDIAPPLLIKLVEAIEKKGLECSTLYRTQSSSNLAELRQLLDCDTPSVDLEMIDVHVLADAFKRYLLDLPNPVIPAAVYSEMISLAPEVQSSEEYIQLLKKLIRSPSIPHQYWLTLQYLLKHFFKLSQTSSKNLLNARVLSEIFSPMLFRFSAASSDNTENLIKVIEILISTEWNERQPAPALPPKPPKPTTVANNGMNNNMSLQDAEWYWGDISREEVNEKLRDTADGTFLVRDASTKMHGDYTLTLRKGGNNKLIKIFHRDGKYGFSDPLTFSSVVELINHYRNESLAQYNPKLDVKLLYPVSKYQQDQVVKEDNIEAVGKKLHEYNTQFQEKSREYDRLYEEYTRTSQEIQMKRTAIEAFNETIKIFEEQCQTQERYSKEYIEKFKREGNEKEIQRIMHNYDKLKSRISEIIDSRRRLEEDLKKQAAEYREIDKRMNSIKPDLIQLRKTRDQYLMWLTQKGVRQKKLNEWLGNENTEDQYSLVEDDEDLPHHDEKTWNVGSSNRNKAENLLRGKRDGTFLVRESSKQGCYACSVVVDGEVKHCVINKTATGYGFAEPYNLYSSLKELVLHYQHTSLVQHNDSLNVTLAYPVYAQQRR

CCOc1c(C(C)n2nc(C)c3c(N)ncnc32)cc(Cl)c(F)c1C1CNC(=O)O1 (single isomer, unassigned) [Example 357, 5-{3-[1-(4-amino-3-methyl-1H-pyrazolo[3,4-d]pyrimidin-1-yl)ethyl]-5-chloro-2-ethoxy-6-fluorophenyl}-1,3-oxazolidin-2-one]
relative activity of the separated enantiomers (peaks 1-4): most active enantiomer
